Results as given in ChEMBL document CHEMBL4507270 (2021).
The source made the active and inactive calls. The calls are words filed in the database; no cut-off is given here.

How the values were obtained:
[1] = GPCRScan assay: inhibition of GABA/PBR; design: species or system Rattus norvegicus; radioligand conc. used [nm] 0.3 – 2.0, parental cells brain tissue
[2] = molecular target: T1, Discoidin domain-containing receptor 2 (Homo sapiens, UniProt Q16832); assay: NanoBRET assay (SGC Frankfurt) with DDR2
T1 sequence (Q16832 whole entry): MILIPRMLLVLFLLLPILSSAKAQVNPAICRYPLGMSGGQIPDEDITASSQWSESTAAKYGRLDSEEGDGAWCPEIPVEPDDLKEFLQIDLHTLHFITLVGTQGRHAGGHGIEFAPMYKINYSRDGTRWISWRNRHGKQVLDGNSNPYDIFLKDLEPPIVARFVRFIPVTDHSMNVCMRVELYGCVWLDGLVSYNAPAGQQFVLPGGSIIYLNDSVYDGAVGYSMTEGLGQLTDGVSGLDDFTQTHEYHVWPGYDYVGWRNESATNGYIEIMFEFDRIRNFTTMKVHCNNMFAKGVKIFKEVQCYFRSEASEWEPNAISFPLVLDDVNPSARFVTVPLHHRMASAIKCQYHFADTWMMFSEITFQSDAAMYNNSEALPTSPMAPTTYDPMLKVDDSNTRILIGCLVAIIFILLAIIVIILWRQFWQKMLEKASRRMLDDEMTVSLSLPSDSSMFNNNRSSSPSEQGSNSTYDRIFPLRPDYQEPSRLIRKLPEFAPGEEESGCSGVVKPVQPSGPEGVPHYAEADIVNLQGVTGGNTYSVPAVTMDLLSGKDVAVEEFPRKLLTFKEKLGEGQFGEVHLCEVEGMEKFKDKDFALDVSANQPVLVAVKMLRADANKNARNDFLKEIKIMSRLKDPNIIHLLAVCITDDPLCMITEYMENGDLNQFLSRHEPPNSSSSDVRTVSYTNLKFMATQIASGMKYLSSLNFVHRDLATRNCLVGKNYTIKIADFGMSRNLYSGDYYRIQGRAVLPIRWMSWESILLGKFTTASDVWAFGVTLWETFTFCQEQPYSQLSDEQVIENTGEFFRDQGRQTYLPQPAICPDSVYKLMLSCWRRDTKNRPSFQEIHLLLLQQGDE

[3] = tested on: Tyrosine-protein kinase ABL1 (Homo sapiens), P00519 [E255K]
[4] = tested on: Tyrosine-protein kinase ABL1 (Homo sapiens), P00519 [F317L]
[5] = molecular target: Atypical kinase COQ8B, mitochondrial (Homo sapiens) (UniProt Q96D53)
[6] = molecular target: Calcium/calmodulin-dependent protein kinase type II subunit beta (Homo sapiens) (UniProt Q13554)
[7] = molecular target: Calcium/calmodulin-dependent protein kinase type II subunit gamma (Homo sapiens) (UniProt Q13555)
[8] = molecular target: Calcium/calmodulin-dependent protein kinase kinase 2 (Homo sapiens) (UniProt Q96RR4)
[9] = molecular target: Cyclin-dependent kinase 7 (Homo sapiens) (UniProt P50613)
[10] = molecular target: Citron Rho-interacting kinase (Homo sapiens) (UniProt O14578)
[11] = molecular target: Discoidin domain-containing receptor 2 (Homo sapiens) (UniProt Q16832)
[12] = molecular target: Ephrin type-B receptor 4 (Homo sapiens) (UniProt P54760)
[13] = molecular target: Insulin receptor-related protein (Homo sapiens) (UniProt P14616)
[14] = molecular target: Interleukin-1 receptor-associated kinase 1 (Homo sapiens) (UniProt P51617)
[15] = molecular target: Serine/threonine-protein kinase LATS2 (Homo sapiens) (UniProt Q9NRM7)
[16] = molecular target: Serine/threonine-protein kinase MAK (Homo sapiens) (UniProt P20794)
[17] = molecular target: MAP kinase-interacting serine/threonine-protein kinase 2 (Homo sapiens) (UniProt Q9HBH9)
[18] = molecular target: Myosin light chain kinase 2, skeletal/cardiac muscle (Homo sapiens) (UniProt Q9H1R3)
[19] = molecular target: Serine/threonine-protein kinase PAK 6 (Homo sapiens) (UniProt Q9NQU5)
[20] = molecular target: Cyclin-dependent kinase 15 (Homo sapiens) (UniProt Q96Q40)
[21] = tested on: Phosphatidylinositol 4,5-bisphosphate 3-kinase catalytic subunit alpha isoform (Homo sapiens), P42336 [E542K]
[22] = molecular target: cAMP-dependent protein kinase catalytic subunit alpha (Homo sapiens) (UniProt P17612)
[23] = molecular target: Serine/threonine-protein kinase N1 (Homo sapiens) (UniProt Q16512)
[24] = molecular target: Protein kinase C delta type (Homo sapiens) (UniProt Q05655)
[25] = molecular target: Serine/threonine-protein kinase PRP4 homolog (Homo sapiens) (UniProt Q13523)
[26] = molecular target: Receptor-interacting serine/threonine-protein kinase 2 (Homo sapiens) (UniProt O43353)
[27] = molecular target: Serine/threonine-protein kinase Sgk3 (Homo sapiens) (UniProt Q96BR1)
[28] = molecular target: Serine/threonine-protein kinase 35 (Homo sapiens) (UniProt Q8TDR2)
[29] = molecular target: Serine/threonine-protein kinase TAO3 (Homo sapiens) (UniProt Q9H2K8)
[30] = molecular target: Transient receptor potential cation channel subfamily M member 6 (Homo sapiens) (UniProt Q9BX84)
[31] = molecular target: Dual specificity protein kinase TTK (Homo sapiens) (UniProt P33981)
[32] = molecular target: Serine/threonine-protein kinase 25 (Homo sapiens) (UniProt O00506)
[33] = molecular target: Muscarinic acetylcholine receptor M1 (Homo sapiens) (UniProt P11229); settings: Compound concentration 10.0 uM
[34] = Compound concentration 100.0 nM
[35] = Compound concentration 1000.0 nM

Sequence of Serine/threonine-protein kinase PRP4 homolog (Homo sapiens) (Q13523 whole entry): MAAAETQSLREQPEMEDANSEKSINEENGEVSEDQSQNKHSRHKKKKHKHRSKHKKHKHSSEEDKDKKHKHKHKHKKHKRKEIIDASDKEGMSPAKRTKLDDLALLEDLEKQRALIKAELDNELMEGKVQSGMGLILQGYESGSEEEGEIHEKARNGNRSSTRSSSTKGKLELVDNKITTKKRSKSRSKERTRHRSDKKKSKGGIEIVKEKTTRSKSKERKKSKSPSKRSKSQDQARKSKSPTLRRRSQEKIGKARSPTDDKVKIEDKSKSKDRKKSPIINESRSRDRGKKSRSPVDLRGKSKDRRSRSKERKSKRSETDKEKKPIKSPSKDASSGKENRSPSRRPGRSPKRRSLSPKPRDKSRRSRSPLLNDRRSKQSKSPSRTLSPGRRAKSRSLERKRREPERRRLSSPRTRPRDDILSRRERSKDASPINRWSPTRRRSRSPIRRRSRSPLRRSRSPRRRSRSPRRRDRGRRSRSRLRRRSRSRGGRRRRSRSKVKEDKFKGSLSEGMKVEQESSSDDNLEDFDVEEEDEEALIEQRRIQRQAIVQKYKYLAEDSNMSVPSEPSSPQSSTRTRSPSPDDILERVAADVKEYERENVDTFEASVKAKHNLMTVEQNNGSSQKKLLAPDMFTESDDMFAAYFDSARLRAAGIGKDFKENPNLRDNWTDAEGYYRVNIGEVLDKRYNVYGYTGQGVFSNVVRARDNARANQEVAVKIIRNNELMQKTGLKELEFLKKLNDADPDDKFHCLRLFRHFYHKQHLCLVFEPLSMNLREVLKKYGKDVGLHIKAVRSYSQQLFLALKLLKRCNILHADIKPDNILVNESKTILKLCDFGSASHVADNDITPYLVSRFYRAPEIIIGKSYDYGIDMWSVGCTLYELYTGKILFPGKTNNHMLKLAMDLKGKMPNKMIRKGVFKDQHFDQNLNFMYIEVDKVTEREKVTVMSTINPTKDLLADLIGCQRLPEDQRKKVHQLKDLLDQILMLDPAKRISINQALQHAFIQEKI
Sequence of Interleukin-1 receptor-associated kinase 1 (Homo sapiens) (P51617 whole entry, looked up): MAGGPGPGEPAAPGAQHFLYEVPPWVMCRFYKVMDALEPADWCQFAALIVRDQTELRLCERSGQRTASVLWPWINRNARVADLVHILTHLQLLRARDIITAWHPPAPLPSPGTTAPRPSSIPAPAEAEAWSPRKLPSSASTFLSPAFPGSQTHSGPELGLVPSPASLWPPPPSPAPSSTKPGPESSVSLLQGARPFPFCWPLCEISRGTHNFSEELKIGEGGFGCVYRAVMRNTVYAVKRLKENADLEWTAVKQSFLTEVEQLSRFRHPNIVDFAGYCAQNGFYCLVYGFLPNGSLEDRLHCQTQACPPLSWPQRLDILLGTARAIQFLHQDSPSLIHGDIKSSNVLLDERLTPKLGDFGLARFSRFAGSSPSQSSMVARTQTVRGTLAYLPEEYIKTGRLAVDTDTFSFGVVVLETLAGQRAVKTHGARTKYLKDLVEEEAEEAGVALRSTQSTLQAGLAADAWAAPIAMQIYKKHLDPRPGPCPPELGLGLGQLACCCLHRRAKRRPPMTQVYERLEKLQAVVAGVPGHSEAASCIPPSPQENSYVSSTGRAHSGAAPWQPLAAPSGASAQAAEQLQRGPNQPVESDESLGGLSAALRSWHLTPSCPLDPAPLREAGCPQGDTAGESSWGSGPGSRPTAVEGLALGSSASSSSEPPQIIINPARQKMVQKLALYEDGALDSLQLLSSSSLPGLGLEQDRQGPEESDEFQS
Sequence of Serine/threonine-protein kinase N1 (Homo sapiens) (Q16512 2-942 limits assumed): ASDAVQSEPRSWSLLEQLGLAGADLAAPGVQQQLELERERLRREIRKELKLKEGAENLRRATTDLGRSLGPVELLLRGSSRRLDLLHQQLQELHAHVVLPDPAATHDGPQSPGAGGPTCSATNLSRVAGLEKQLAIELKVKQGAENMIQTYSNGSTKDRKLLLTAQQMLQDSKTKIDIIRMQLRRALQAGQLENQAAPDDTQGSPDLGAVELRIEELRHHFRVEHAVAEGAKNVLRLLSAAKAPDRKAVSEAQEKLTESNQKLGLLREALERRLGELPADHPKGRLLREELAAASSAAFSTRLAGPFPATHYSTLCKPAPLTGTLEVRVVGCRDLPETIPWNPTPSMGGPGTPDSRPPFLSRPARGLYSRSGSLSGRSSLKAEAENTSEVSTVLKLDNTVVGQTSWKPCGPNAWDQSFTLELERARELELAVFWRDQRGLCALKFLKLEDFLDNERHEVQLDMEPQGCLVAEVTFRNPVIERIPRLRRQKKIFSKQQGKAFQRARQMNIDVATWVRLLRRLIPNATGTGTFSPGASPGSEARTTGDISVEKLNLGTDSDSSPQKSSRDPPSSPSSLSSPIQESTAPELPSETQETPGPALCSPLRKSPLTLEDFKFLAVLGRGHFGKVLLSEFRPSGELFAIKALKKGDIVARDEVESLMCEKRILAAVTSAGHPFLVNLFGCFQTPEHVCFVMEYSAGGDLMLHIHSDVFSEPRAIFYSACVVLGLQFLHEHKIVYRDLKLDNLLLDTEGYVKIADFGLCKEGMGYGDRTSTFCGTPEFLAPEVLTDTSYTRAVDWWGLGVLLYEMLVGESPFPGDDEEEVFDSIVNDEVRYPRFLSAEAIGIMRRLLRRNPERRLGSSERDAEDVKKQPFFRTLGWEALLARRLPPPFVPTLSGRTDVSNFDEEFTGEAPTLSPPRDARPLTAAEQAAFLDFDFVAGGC
Sequence of Atypical kinase COQ8B, mitochondrial (Homo sapiens) (Q96D53 whole entry): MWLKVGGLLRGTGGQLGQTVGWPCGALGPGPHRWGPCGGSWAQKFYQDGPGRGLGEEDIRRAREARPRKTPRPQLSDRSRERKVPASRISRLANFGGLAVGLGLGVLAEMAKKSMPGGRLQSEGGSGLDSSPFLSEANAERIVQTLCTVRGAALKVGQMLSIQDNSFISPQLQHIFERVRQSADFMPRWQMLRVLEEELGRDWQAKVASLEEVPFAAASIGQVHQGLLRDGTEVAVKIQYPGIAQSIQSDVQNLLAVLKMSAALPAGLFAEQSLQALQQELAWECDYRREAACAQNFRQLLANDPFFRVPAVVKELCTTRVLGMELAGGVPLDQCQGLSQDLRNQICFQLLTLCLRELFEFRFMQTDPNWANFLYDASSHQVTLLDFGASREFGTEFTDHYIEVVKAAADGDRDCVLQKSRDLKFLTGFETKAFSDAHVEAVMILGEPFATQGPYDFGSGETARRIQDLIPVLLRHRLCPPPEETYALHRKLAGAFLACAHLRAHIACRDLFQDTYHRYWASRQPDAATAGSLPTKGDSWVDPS
Sequence of Myosin light chain kinase 2, skeletal/cardiac muscle (Homo sapiens) (Q9H1R3 whole entry): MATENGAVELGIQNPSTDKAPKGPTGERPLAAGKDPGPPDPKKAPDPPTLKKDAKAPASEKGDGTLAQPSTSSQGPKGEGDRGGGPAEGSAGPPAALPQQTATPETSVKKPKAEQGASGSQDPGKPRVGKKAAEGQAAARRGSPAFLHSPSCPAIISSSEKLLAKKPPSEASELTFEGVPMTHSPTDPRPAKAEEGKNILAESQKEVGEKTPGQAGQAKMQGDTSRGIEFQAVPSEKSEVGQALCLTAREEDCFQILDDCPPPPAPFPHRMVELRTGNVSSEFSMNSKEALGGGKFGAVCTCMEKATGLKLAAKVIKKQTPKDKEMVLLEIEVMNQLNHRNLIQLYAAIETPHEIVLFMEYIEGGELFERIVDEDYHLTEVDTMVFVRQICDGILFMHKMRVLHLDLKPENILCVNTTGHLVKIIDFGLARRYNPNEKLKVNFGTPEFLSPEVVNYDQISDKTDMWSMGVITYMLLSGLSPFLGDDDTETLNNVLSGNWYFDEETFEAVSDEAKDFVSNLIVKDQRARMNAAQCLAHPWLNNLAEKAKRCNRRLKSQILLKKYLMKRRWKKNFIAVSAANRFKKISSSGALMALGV
Sequence of Ephrin type-B receptor 4 (Homo sapiens) (P54760 whole entry): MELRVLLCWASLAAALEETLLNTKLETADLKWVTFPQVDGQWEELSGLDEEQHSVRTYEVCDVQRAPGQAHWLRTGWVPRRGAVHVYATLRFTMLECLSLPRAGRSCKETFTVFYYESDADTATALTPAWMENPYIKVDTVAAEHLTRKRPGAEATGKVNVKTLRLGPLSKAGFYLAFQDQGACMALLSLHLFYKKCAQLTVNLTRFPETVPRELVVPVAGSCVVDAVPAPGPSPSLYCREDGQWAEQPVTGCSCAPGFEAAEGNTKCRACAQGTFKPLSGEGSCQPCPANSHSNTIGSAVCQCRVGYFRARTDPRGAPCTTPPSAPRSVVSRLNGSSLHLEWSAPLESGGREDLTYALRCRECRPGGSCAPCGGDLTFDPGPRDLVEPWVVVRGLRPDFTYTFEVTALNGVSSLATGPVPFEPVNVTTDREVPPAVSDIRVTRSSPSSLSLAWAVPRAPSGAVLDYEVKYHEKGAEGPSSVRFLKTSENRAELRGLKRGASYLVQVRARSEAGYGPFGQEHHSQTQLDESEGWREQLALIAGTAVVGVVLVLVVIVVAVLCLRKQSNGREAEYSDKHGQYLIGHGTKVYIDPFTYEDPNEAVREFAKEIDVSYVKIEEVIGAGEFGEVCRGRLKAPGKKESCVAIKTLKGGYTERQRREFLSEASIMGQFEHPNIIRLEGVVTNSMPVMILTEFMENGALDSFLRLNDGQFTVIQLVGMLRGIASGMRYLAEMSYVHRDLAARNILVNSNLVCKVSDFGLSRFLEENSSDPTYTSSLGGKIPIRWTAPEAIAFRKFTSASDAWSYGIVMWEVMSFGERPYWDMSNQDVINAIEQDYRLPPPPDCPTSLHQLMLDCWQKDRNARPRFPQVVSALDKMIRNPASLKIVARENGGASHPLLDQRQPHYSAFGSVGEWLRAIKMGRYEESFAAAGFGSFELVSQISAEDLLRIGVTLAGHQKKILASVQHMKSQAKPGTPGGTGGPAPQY

For `Cc1cc(C)c(-n2ccn3nc(-c4cccnc4)cc23)cc1NC(=O)c1cc(C#N)cc(S(F)(F)(F)(F)F)c1` [BAY-826], the Ki [1] was 217 nM, the EC50 [2] was 0.54 nM (active) and the IC50 [2] was 3 nM (active). It also gave a residual activity [3, 34] of 74.5%, a residual activity [4, 34] of 63.3% and a residual activity [5, 34] of 93.2%. For the same compound, the residual activity [6, 34] was 87.5%, the residual activity [7, 34] was 93.4% and the residual activity [8, 34] was 89%. For the same compound, the residual activity [9, 34] was 70.1%, the residual activity [10, 34] was 69.9% and the residual activity [11, 34] was 1.8%. It also gave a residual activity [12, 34] of 99.6%, a residual activity [13, 34] of 91.8% and a residual activity [14, 34] of 87.3%. It also gave a residual activity [15, 34] of 73.2%, a residual activity [16, 34] of 77.2% and a residual activity [17, 34] of 95%. For the same compound, the residual activity [18, 34] was 100%, the residual activity [19, 34] was 70.1% and the residual activity [20, 34] was 76%. The residual activity [21, 34] was 83.6%, the residual activity [22, 34] was 95.6% and the residual activity [23, 34] was 96.7%. For the same compound, the residual activity [24, 34] was 93.1%, the residual activity [25, 34] was 80.6% and the residual activity [26, 34] was 84.5%. The residual activity [27, 34] was 81.5%, the residual activity [28, 34] was 92% and the residual activity [29, 34] was 47.1%. It also gave a residual activity [30, 34] of 80.2%, a residual activity [31, 34] of 72% and a residual activity [32, 34] of 79.1%. It also gave an inhibition [33] of 24.8%.
In the case of `Cc1cc(NC(=O)c2cccc(S(F)(F)(F)(F)F)c2)cc(-n2ccn3nc(-c4cccnc4)cc23)c1` [BAY-309], the Ki [1] is reported as 10.9 nM, the pKi [1] is reported as 8.03 and the EC50 [2] is reported as 2700 nM (not active). For the same compound, the IC50 [2] was 9300 nM (not active), the residual activity [3, 35] was 66.7% and the residual activity [4, 35] was 72.9%. The residual activity [5, 35] was 100%, the residual activity [6, 35] was 100% and the residual activity [7, 35] was 100%. It also gave a residual activity [8, 35] of 99.6%, a residual activity [9, 35] of 100% and a residual activity [10, 35] of 60.7%. It also gave a residual activity [11, 35] of 18.2%, a residual activity [12, 35] of 100% and a residual activity [13, 35] of 100%. For the same compound, the residual activity [14, 35] was 96%, the residual activity [15, 35] was 100% and the residual activity [16, 35] was 100%. It also gave a residual activity [17, 35] of 85.2%, a residual activity [18, 35] of 100% and a residual activity [19, 35] of 100%. For the same compound, the residual activity [20, 35] was 59.9%, the residual activity [21, 35] was 75.2% and the residual activity [22, 35] was 100%. For the same compound, the residual activity [23, 35] was 100%, the residual activity [24, 35] was 95.8% and the residual activity [25, 35] was 99.7%. For the same compound, the residual activity [26, 35] was 88.6%, the residual activity [27, 35] was 72.1% and the residual activity [28, 35] was 100%. The residual activity [29, 35] was 100%, the residual activity [30, 35] was 97% and the residual activity [31, 35] was 44.8%. For the same compound, the residual activity [32, 35] was 59.5% and the inhibition [33] was 9.28%.
